Data from patent US20130005760A1, “HETEROCYCLIC COMPOUND HAVING AZOLE GROUP” (Toyama Chemical Co., Ltd., priority 2010, published 2013).

Assays:
HIV-1 (JRCSF) [1] = test: Anti-HIV activity (Test Example 1-1): MaRBLE cells infected with HIV-1 (JRCSF), compound added 2 h after seeding, luciferase readout after 7 days; type: cell-based; settings: Human immunodeficiency virus 1, 168 h, 7 days culture, firefly luciferase, virus growth rate, 4 parameter Logistic Model (XLfit 4)
Experimental: (§1) This example was carried out by reference to Journal of Clinical Microbiology, 2007, Vol. 45, pages 477 to 487.
(§2) An anti-HIV activity was evaluated using MaRBLE cells obtained by transfection of HPB-M(a) derived from human T-lymphocytes with a luciferase gene of which expressions were regulated by HIV-1 LTR and a CCR5 gene etc.
The MaRBLE cells were suspended in RPMI1640 containing 10% FCS (fetal calf serum) and penicillin/streptomycin. After infected with HIV-1 (JRCSF), the cells were seeded on a 96-well plate (1×10^5 cells/well). As a control group, the same number of uninfected cells were seeded.
After incubating the plate under the condition of 37° C. and 5% CO2 for 2 hours, a fresh culture medium or a culture medium containing an appropriately diluted test compound was added to each well.
After further culturing at 37° C. under 5% CO2 for 7 days, an intracellular luciferase activity was measured using Dual-Glo Luciferase assay system (Promega).
(§3) The virus growth rate was calculated by the following equation.
(§4) Virus growth rate (%)=(A/B)×100
(§5) A=(Firefly luciferase activity in the well with the compound)−(Firefly luciferase activity of uninfected cells)
(§6) B=(Firefly luciferase activity in the well without the compound)−(Firefly luciferase activity of uninfected cells)
The IC50 of the compound was calculated by applying virus growth rates of various concentrations to 4 parameter Logistic Model of curve-fitting software XLfit 4.

[2] = Pharmacokinetic study in mice (oral administration); type: in vivo; settings: mouse, serum, 25 mg/kg, male ICR mice, suspension in 0.5% methylcellulose 2.5 mg/mL at 10 mL/kg, 12 hours after administration, HPLC, read-out: serum concentration of the test compound
Experimental: The compounds of Examples 2, 4, 5, 12 and 16 were used as test compounds.
A test compound suspended in 0.5% methylcellulose (2.5 mg/mL) was orally administered at 10 mL/kg to male ICR mice (6 week-old, three animals in a group). At 12 hours after the administration, the blood of the mice was collected, and the concentrations of the test compound in the serum were measured by HPLC.

[3] = Single-dose oral toxicity study in mice; type: in vivo; settings: male ICR mice, suspension in 0.5% methylcellulose, conditions observed on the next day
Experimental: (§7) The compounds of Examples 2, 4 and 12 were used as test compounds.
10 mL/kg of a test compound suspended in 0.5% methylcellulose was orally administered to male ICR mice (6 week-old, one animal in a group).
On the next day after the administration, the conditions of the mice were observed.

[4] = tested on: bone marrow polychromatic erythrocytes; test: In vivo micronucleus study in mice; settings: male ICR mice, oral twice at 24 hour interval, bone marrow 24 hours after final administration, highest dose group with all animals alive
Experimental: as §7
A test compound suspended in 0.5% methylcellulose was orally administered to male ICR mice (8 week-old, three animals in a group) twice at a 24 hour interval. To a control group, 0.5% methylcellulose was orally administered in a similar manner.
At 24 hours after the final administration, the mice in the highest dose group in which all the animals were alive were killed by exsanguination under ether anesthesia, and one thigh bone was collected from each animal. After cutting the collected thigh bone at the proximal end, bone marrow cells were washed out with fetal calf serum to a centrifuge tube using a disposable syringe, and after centrifugation (1000 rpm, 5 minutes, HITACHI 05PR-22), a part of the supernatant was discarded to obtain a suspension of bone marrow cells. This suspension was smeared on a slide glass, and then dried followed by methanol fixation to prepare a sample.
The sample was observed by acridine orange staining.
The sample of which frequency of MNPCE exceeds 0.5% was judged positive.
Frequency of MNPCE (%)=(MNPCE number/Observed PCE number)×100

HIV-1 (JRCSF) [5] = test: Anti-HIV activity (Test Example 1-2): infected MaRBLE cells seeded on plate containing drug solution, luciferase readout after 7 days; type: cell-based; settings: Human immunodeficiency virus 1, 168 h, MaRBLE cells infected with HIV-1 (JRCSF), 7 days culture, firefly luciferase, FORECAST linear regression (Excel)
Experimental: as §1, §2
A plate containing a drug solution was made by dispensing a fresh culture medium or an appropriately diluted test compound to a 96-well plate.
MaRBLE cells were suspended in RPMI1640 containing 10% FCS (fetal calf serum) and penicillin/streptomycin. After infected with HIV-1 (JRCSF), the cells were seeded on the above-described plate containing a drug solution ([…] cells/well). As a control group, the same number of uninfected cells were seeded.
After culturing at 37° C. under 5% CO2 for 7 days, an intracellular luciferase activity was measured using Dual-Glo Luciferase assay system (Promega).
as §3, §4, §5, §6
The IC50 of the compound was calculated by plotting the concentration with the logarithm and by plotting the virus growth rate with a real number, using the FORECAST function (linear regression technique) of Microsoft Office Excel 2003.

SMILES: Cc1noc(C)c1-c1ccc2c(=O)cc(C)n(-c3cc(N)c(F)cc3F)c2c1 [Example 2, 1-(5-amino-2,4-difluorophenyl)-7-(3,5-dimethylisoxazol-4-yl)-2-methyl-1,4-dihydro-4-oxoquinoline]
- IC50 (HIV-1 (JRCSF) [1]): 1.4 nM
- concentration at 12 h [2]: ≥ 500 ng/mL
- dose at which the compound showed good safety (single oral dose) [3]: 2000 mg/kg
- micronucleus test result (frequency of MNPCE exceeding 0.5% judged positive) [4]: negative

SMILES: Cc1noc(C)c1-c1ccc2c(=O)cc(C)n(-c3cc(N)c(F)cc3F)c2n1 [Example 4, 1-(5-amino-2,4-difluorophenyl)-7-(3,5-dimethylisoxazol-4-yl)-2-methyl-1,4-dihydro-4-oxo-1,8-naphthyridine]
- IC50 (HIV-1 (JRCSF) [1]): 0.38 nM
- concentration at 12 h [2]: ≥ 500 ng/mL
- dose at which the compound showed good safety (single oral dose) [3]: 750 mg/kg
- micronucleus test result (frequency of MNPCE exceeding 0.5% judged positive) [4]: negative

SMILES: Cc1noc(C)c1-c1ccc2c(=O)cc(C)n(Cc3ccccc3N)c2c1 [Example 5, 1-(2-aminobenzyl)-7-(3,5-dimethylisoxazol-4-yl)-2-methyl-1,4-dihydro-4-oxoquinoline]
- concentration at 12 h [2]: ≥ 500 ng/mL

SMILES: Cc1noc(C)c1-c1ccc2c(=O)cc(C)n(Cc3ccccc3N)c2c1 [Example 5-2, 1-(2-aminobenzyl)-7-(3,5-dimethylisoxazol-4-yl)-2-methyl-1,4-dihydro-4-oxoquinoline.½ pinacol adduct]
- IC50 (HIV-1 (JRCSF) [1]): 0.27 nM

SMILES: Cc1noc(C)c1-c1ccc2c(=O)cc(CO)n(Cc3ccccc3N)c2c1 [Example 7, 1-(2-aminobenzyl)-7-(3,5-dimethylisoxazol-4-yl)-2-hydroxymethyl-1,4-dihydro-4-oxoquinoline]
- IC50 (HIV-1 (JRCSF) [1]): 0.2 nM

SMILES: Cc1noc(C)c1-c1ccc2c(=O)cc(N)n(-c3ccc(F)cc3F)c2c1 [Example 10, 2-amino-1-(2,4-difluorophenyl)-7-(3,5-dimethylisoxazol-4-yl)-1,4-dihydro-4-oxoquinoline]
- IC50 (HIV-1 (JRCSF) [1]): 2.8 nM

SMILES: Cc1noc(C)c1-c1ccc2c(=O)cc(C)n(Cc3cccc(F)c3N)c2c1 [Example 11, 1-(2-amino-3-fluorobenzyl)-7-(3,5-dimethylisoxazol-4-yl)-2-methyl-1,4-dihydro-4-oxoquinoline]
- IC50 (HIV-1 (JRCSF) [1]): 0.62 nM

SMILES: Cc1noc(C)c1-c1cc2c(cc1F)c(=O)cc(C)n2Cc1ccccc1N [Example 13, 1-(2-aminobenzyl)-7-(3,5-dimethylisoxazol-4-yl)-6-fluoro-2-methyl-1,4-dihydro-4-oxoquinoline]
- IC50 (HIV-1 (JRCSF) [5]): 2.9 nM

SMILES: Cc1noc(C)c1-c1ccc2c(=O)cc(C)n(Cc3cc(F)cc(F)c3N)c2c1 [Example 14, 1-(2-amino-3,5-difluorobenzyl)-7-(3,5-dimethylisoxazol-4-yl)-2-methyl-1,4-dihydro-4-oxoquinoline]
- IC50 (HIV-1 (JRCSF) [5]): 0.55 nM

SMILES: CCc1cc(=O)c2ccc(-c3c(C)noc3C)cc2n1-c1cc(N)c(F)cc1F [Example 16, 1-(5-amino-2,4-difluorophenyl)-7-(3,5-dimethylisoxazol-4-yl)-2-ethyl-1,4-dihydro-4-oxoquinoline]
- IC50 (HIV-1 (JRCSF) [1]): 7.2 nM
- concentration at 12 h [2]: ≥ 500 ng/mL

SMILES: CCc1cc(=O)c2ccc(-c3c(C)noc3C)cc2n1Cc1cccc(F)c1N [Example 17, 1-(2-amino-3-fluorobenzyl)-7-(3,5-dimethylisoxazol-4-yl)-2-ethyl-1,4-dihydro-4-oxoquinoline]
- IC50 (HIV-1 (JRCSF) [1]): 0.26 nM

SMILES: Cc1noc(C)c1-c1ccc2c(=O)cc(C)n(Cc3cccnc3N)c2c1 [Example 18, 1-((2-aminopyridin-3-yl)methyl)-7-(3,5-dimethylisoxazol-4-yl)-2-methyl-1,4-dihydro-4-oxoquinoline]
- IC50 (HIV-1 (JRCSF) [1]): 3.5 nM

SMILES: Cc1noc(C)c1-c1ccc2c(=O)cc(CO)n(-c3cc(N)c(F)cc3F)c2c1 [Example 19, 1-(5-amino-2,4-difluorophenyl)-7-(3,5-dimethylisoxazol-4-yl)-2-(hydroxymethyl)-1,4-dihydro-4-oxoquinoline]
- IC50 (HIV-1 (JRCSF) [1]): 1.7 nM

SMILES: Cc1noc(C)c1-c1ccc2c(=O)cc(N)n(-c3cc(N)c(F)cc3F)c2c1 [Example 20, 2-amino-1-(5-amino-2,4-difluorophenyl)-7-(3,5-dimethylisoxazol-4-yl)-1,4-dihydro-4-oxoquinoline]
- IC50 (HIV-1 (JRCSF) [1]): 2.6 nM

SMILES: Cc1noc(C)c1-c1ccc2c(=O)cc(CO)n(-c3ccc(F)cc3F)c2c1 [Example 22, 1-(2,4-difluorophenyl)-7-(3,5-dimethylisoxazol-4-yl)-2-hydroxymethyl-1,4-dihydro-4-oxoquinoline]
- IC50 (HIV-1 (JRCSF) [1]): 0.6 nM

SMILES: Cc1noc(C)c1-c1ccc2c(=O)cc(CO)n(-c3cc(N)c(F)cc3F)c2n1 [Example 24, 1-(5-amino-2,4-difluorophenyl)-7-(3,5-dimethylisoxazol-4-yl)-2-hydroxymethyl-1,4-dihydro-4-oxo-1,8-naphthyridine]
- IC50 (HIV-1 (JRCSF) [1]): 0.54 nM

SMILES: Cc1noc(C)c1-c1ccc2c(=O)cc(C)n(-c3ccc(F)cc3F)c2n1 [Example 25, 1-(2,4-difluorophenyl)-7-(3,5-dimethylisoxazol-4-yl)-2-methyl-1,4-dihydro-4-oxo-1,8-naphthyridine]
- IC50 (HIV-1 (JRCSF) [1]): 0.64 nM

SMILES: Cc1noc(C)c1-c1ccc2c(=O)cc(CO)n(-c3ccc(F)cc3F)c2n1 [Example 26, 1-(2,4-difluorophenyl)-7-(3,5-dimethylisoxazol-4-yl)-2-hydroxymethyl-1,4-dihydro-4-oxo-1,8-naphthyridine]
- IC50 (HIV-1 (JRCSF) [1]): 0.23 nM

SMILES: Cc1noc(C)c1-c1ccc2c(=O)cc(CN)n(-c3ccc(F)cc3F)c2n1 [Example 27, 2-(aminomethyl)-1-(2,4-difluorophenyl)-7-(3,5-dimethylisoxazol-4-yl)-1,4-dihydro-4-oxo-1,8-naphthyridine]
- IC50 (HIV-1 (JRCSF) [1]): 0.3 nM

SMILES: Cc1noc(C)c1-c1ccc2c(=O)cc(N)n(-c3ccc(F)cc3F)c2n1 [Example 28, 2-amino-1-(2,4-difluorophenyl)-7-(3,5-dimethylisoxazol-4-yl)-1,4-dihydro-4-oxo-1,8-naphthyridine]
- IC50 (HIV-1 (JRCSF) [1]): 0.3 nM

SMILES: Cc1noc(C)c1-c1ccc2c(=O)cc(C)n(Cc3ccccc3N)c2n1 [Example 29, 1-(2-aminobenzyl)-7-(3,5-dimethylisoxazol-4-yl)-2-methyl-1,4-dihydro-4-oxo-1,8-naphthyridine]
- IC50 (HIV-1 (JRCSF) [1]): 1.2 nM

SMILES: Cc1noc(C)c1-c1ccc2c(=O)cc(C)n(-c3cc(N)c(S(C)(=O)=O)cc3F)c2c1 [Example 31, 1-(5-amino-2-fluoro-4-(methylsulfonyl)phenyl)-7-(3,5-dimethylisoxazol-4-yl)-2-methyl-1,4-dihydro-4-oxoquinoline]
- IC50 (HIV-1 (JRCSF) [1]): 1.8 nM

SMILES: Cc1noc(C)c1-c1ccc2c(=O)cc(C)n(-c3cc(N)c(S(C)(=O)=O)cc3F)c2n1 [Example 33, 1-(5-amino-2-fluoro-4-(methylsulfonyl)phenyl)-7-(3,5-dimethylisoxazol-4-yl)-2-methyl-1,4-dihydro-4-oxo-1,8-naphthyridine]
- IC50 (HIV-1 (JRCSF) [5]): 0.87 nM

SMILES: Cc1noc(C)c1-c1ccc2c(=O)cc(C)n(-c3cc(N)c(Cl)cc3F)c2n1 [Example 34, 1-(5-amino-4-chloro-2-fluorophenyl)-7-(3,5-dimethylisoxazol-4-yl)-2-methyl-1,4-dihydro-4-oxo-1,8-naphthyridine]
- IC50 (HIV-1 (JRCSF) [1]): 0.48 nM

SMILES: Cc1noc(C)c1-c1ccc2c(=O)cc(C)n(Cc3ccc(Cl)c(F)c3N)c2c1 [Example 35, 1-(2-amino-4-chloro-3-fluorobenzyl)-7-(3,5-dimethylisoxazol-4-yl)-2-methyl-1,4-dihydro-4-oxoquinoline]
- IC50 (HIV-1 (JRCSF) [5]): 2.6 nM
